Assay results from ChEMBL document CHEMBL3875181, “Recent discovery of non-nucleobase thymidine phosphorylase inhibitors targeting cancer” (Eur J Med Chem, 2016).
pIC50, pKi: −log10 of the molar value.

Assays:
Thymidine phosphorylase [1] = biological target: T1, Thymidine phosphorylase (Escherichia coli K-12, UniProt P07650); test: Inhibition of Escherichia coli K12 thymidine phosphorylase expressed in Escherichia coli using thymidine as substrate addition measured up to 20 mins by Uv-vis spectrophotometric method
[2] = Non-competitive inhibition of Escherichia coli thymidine phosphorylase expressed in Escherichia coli preincubated for 10 mins followed by varying levels of thymidine substrate addition by Lineweaver-Burk plot analysis
[3] = Inhibition of Escherichia coli thymidine phosphorylase expressed in Escherichia coli preincubated for 10 mins followed by thymidine substrate addition measured for 10 mins by spectrophotometric method
Thymidine phosphorylase [4] = biological target: T1, Thymidine phosphorylase; test: Inhibition of Escherichia coli K12 thymidine phosphorylase expressed in Escherichia coli preincubated for 10 mins followed by substrate addition measured up to 30 mins by spectrophotometric method
Thymidine phosphorylase [5] = biological target: T2, Thymidine phosphorylase (Homo sapiens, UniProt P19971); test: Inhibition of human thymidine phosphorylase using thymidine as substrate preincubated for 30 mins followed substrate addition measured up to 30 mins
T2 sequence (P19971 whole entry): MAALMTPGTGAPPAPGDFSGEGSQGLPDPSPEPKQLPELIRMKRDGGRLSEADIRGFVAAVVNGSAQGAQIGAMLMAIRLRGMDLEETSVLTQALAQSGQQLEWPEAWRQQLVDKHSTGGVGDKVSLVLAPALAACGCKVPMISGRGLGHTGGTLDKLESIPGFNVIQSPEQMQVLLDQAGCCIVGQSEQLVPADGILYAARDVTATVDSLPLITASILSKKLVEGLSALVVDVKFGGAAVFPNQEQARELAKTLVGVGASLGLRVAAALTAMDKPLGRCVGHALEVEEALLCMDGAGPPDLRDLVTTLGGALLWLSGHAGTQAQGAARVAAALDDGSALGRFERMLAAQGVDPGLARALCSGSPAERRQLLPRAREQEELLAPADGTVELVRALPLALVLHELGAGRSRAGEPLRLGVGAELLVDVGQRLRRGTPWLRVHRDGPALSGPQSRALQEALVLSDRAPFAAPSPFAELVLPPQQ

[6] = biological target: Thymidine phosphorylase (Escherichia coli K-12) (UniProt P07650); test: Potency index, ratio of 7-DX IC50 to compound IC50 for Escherichia coli K12 thymidine phosphorylase expressed in Escherichia coli
Sequence of Thymidine phosphorylase (Escherichia coli K-12) (P07650 whole entry, looked up): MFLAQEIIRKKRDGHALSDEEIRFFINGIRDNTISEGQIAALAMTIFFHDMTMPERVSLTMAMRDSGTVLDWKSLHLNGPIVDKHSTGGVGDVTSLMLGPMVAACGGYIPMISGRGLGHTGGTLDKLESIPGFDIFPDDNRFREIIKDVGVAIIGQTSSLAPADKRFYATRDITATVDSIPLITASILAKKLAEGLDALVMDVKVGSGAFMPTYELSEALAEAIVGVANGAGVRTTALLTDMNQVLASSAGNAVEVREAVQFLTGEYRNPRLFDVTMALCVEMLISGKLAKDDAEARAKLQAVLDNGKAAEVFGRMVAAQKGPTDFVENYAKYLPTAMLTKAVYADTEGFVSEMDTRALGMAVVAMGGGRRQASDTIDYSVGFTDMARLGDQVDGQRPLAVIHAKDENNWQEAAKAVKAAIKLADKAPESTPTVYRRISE

T1 sequence (P07650 whole entry): as the sequence (P07650 whole entry, looked up) above

O=c1[nH]c(SCc2ccccc2)nc2nc(-c3ccccc3)nn12
pIC50 (Thymidine phosphorylase [1]): 3.95

O=c1[nH]c(-c2ccc(O)c(O)c2)nc2ccccc12
pKi [2]: 4.28 | pIC50 [3]: 4.37

Oc1ccc(-c2nnc(S)o2)cc1
pIC50 (Thymidine phosphorylase [4]): 4.42

O=C(OCc1cc(O)ccc1O[C@@H]1O[C@H](CO)[C@@H](O)[C@@H](OC(=O)c2ccc(O)cc2)[C@H]1O)c1ccccc1
pIC50 (Thymidine phosphorylase [5]): 3.65

Oc1cc(O)c(/C=N/Nc2cnc3ccccc3n2)cc1O
pIC50 (Thymidine phosphorylase [4]): 5.49 | Ratio IC50 [6]: 12
